Experimental data reported in PubChem BioAssay AID1845203 (Molecular Pharmacology Branch, DTP, NCI, 2023).
Values joined by “and” are separate entries in the source; they are usually repeats but may differ in a detail not shown here. Identical values can stand only once.

System: G-401 tumor spheroids, viability % test/control
Test: Anticancer human tumor G-401 cell line growth inhibition;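 further: spheroids exposed to compound for 7 days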;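 on viability, T/C: 100% = DMSO vehicle-treated spheroids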
Details: spheroids with HUVEC and MSC; for viability, T/C: stronger effect = lower value
Outline: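 Single agents and combinations were tested on spheroids built from tumor cells plus HUVEC and hMSC, at half-log dilutions starting at or near clinical Cmax, else 10 microM; final DMSO 0.25% (v/v).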

With `Cn1ncnc1[C@H]1c2n[nH]c(=O)c3cc(F)cc(c23)N[C@@H]1c1ccc(F)cc1` + COc1cc2c(cc1O)CCNC21CSC2c3c(OC(C)=O)c(C)c4c(c3C(COC1=O)N1C(O)C3Cc5cc(C)c(OC)c(O)c5C(C21)N3C)OCO4 the IC50 (curve of first compound, second compound 30 pM) was 72.5 nM, the IC50 (curve of first compound, second compound 94.9 pM) was < 9.49 nM and the IC50 (curve of first compound, second compound 0.0003 µM) was < 9.49 nM. For the same compound, the IC50 (curve of first compound, second compound 0.000949 µM) was < 9.49 nM, the IC50 (curve of first compound, second compound 0.003 µM) was < 9.49 nM and the viability, T/C (second compound 30 pM, first compound 0.00949 µM) was 70.6%. It also gave a viability, T/C (second compound 30 pM, first compound 0.03 µM) of 62%, a viability, T/C (second compound 30 pM, first compound 0.0949 µM) of 46% and a viability, T/C (second compound 30 pM, first compound 0.3 µM) of 30.6%. For the same compound, the viability, T/C (second compound 30 pM, first compound 0.949 µM) was 19.6%, the viability, T/C (second compound 30 pM, first compound 3 µM) was 10.8% and the viability, T/C (second compound 94.9 pM, first compound 0.00949 µM) was 48.4%. It also gave a viability, T/C (second compound 94.9 pM, first compound 0.03 µM) of 47.3%, a viability, T/C (second compound 94.9 pM, first compound 0.0949 µM) of 34.1% and a viability, T/C (second compound 94.9 pM, first compound 0.3 µM) of 26.2%. For the same compound, the viability, T/C (second compound 94.9 pM, first compound 0.949 µM) was 17.9%, the viability, T/C (second compound 94.9 pM, first compound 3 µM) was 9.94% and the viability, T/C (second compound 0.0003 µM, first compound 0.00949 µM) was 25.6%. It also gave a viability, T/C (second compound 0.0003 µM, first compound 0.03 µM) of 26.4%, a viability, T/C (second compound 0.0003 µM, first compound 0.0949 µM) of 21.5% and a viability, T/C (second compound 0.0003 µM, first compound 0.3 µM) of 19.1%. For the same compound, the viability, T/C (second compound 0.0003 µM, first compound 0.949 µM) was 11.2%, the viability, T/C (second compound 0.0003 µM, first compound 3 µM) was 7.83% and the viability, T/C (second compound 0.000949 µM, first compound 0.00949 µM) was 6.63%. For the same compound, the viability, T/C (second compound 0.000949 µM, first compound 0.03 µM) was 5.61%, the viability, T/C (second compound 0.000949 µM, first compound 0.0949 µM) was 5.35% and the viability, T/C (second compound 0.000949 µM, first compound 0.3 µM) was 5.74%. For the same compound, the viability, T/C (second compound 0.000949 µM, first compound 0.949 µM) was 2.94%, the viability, T/C (second compound 0.000949 µM, first compound 3 µM) was 0.23% and the viability, T/C (second compound 0.003 µM, first compound 0.00949 µM) was 0.15%. It also gave a viability, T/C (second compound 0.003 µM, first compound 0.03 µM) of 0.13%, a viability, T/C (second compound 0.003 µM, first compound 0.0949 µM) of 0.13% and a viability, T/C (second compound 0.003 µM, first compound 0.3 µM) of 0.15%. It also gave a viability, T/C (second compound 0.003 µM, first compound 0.949 µM) of 0.14% and a viability, T/C (second compound 0.003 µM, first compound 3 µM) of 0.21%.
With `CNCc1ccc(-c2cc(-c3nc(-c4ccc(S(=O)(=O)C(C)C)cc4)cnc3N)on2)cc1` + Cn1nnc2c(C(N)=O)ncn2c1=O the IC50 (curve of first compound, second compound 1 µM) was 2010 nM, the IC50 (curve of first compound, second compound 3.16 µM) was 1780 nM and the IC50 (curve of first compound, second compound 10 µM) was 1060 nM. The IC50 (curve of first compound, second compound 31.6 µM) was 917 nM, the IC50 (curve of first compound, second compound 100 µM) was 323 nM and the viability, T/C (second compound 1 µM, first compound 0.00949 µM) was 105%. The viability, T/C (second compound 1 µM, first compound 0.03 µM) was 108%, the viability, T/C (second compound 1 µM, first compound 0.0949 µM) was 106% and the viability, T/C (second compound 1 µM, first compound 0.3 µM) was 106%. The viability, T/C (second compound 1 µM, first compound 0.949 µM) was 72.7%, the viability, T/C (second compound 1 µM, first compound 3 µM) was 37.8% and the viability, T/C (second compound 3.16 µM, first compound 0.00949 µM) was 109%. The viability, T/C (second compound 3.16 µM, first compound 0.03 µM) was 105%, the viability, T/C (second compound 3.16 µM, first compound 0.0949 µM) was 104% and the viability, T/C (second compound 3.16 µM, first compound 0.3 µM) was 103%. It also gave a viability, T/C (second compound 3.16 µM, first compound 0.949 µM) of 64.1%, a viability, T/C (second compound 3.16 µM, first compound 3 µM) of 38.4% and a viability, T/C (second compound 10 µM, first compound 0.00949 µM) of 103%. It also gave a viability, T/C (second compound 10 µM, first compound 0.03 µM) of 97.6%, a viability, T/C (second compound 10 µM, first compound 0.0949 µM) of 100% and a viability, T/C (second compound 10 µM, first compound 0.3 µM) of 99.2%. The viability, T/C (second compound 10 µM, first compound 0.949 µM) was 52.5%, the viability, T/C (second compound 10 µM, first compound 3 µM) was 25.4% and the viability, T/C (second compound 31.6 µM, first compound 0.00949 µM) was 93.9%. It also gave a viability, T/C (second compound 31.6 µM, first compound 0.03 µM) of 94.7%, a viability, T/C (second compound 31.6 µM, first compound 0.0949 µM) of 96.2% and a viability, T/C (second compound 31.6 µM, first compound 0.3 µM) of 85.1%. The viability, T/C (second compound 31.6 µM, first compound 0.949 µM) was 49%, the viability, T/C (second compound 31.6 µM, first compound 3 µM) was 20.4% and the viability, T/C (second compound 100 µM, first compound 0.00949 µM) was 96.3%. For the same compound, the viability, T/C (second compound 100 µM, first compound 0.03 µM) was 98.7%, the viability, T/C (second compound 100 µM, first compound 0.0949 µM) was 90.4% and the viability, T/C (second compound 100 µM, first compound 0.3 µM) was 51.7%. It also gave a viability, T/C (second compound 100 µM, first compound 0.949 µM) of 27.1% and a viability, T/C (second compound 100 µM, first compound 3 µM) of 25.7%.
In the case of `Cn1ncnc1[C@H]1c2n[nH]c(=O)c3cc(F)cc(c23)N[C@@H]1c1ccc(F)cc1`, the viability, T/C (compound 0.00949 µM) is reported as 70.3% and 90% and 80.4%, the viability, T/C (compound 0.03 µM) is reported as 54.4% and 75.6% and 67% and the viability, T/C (compound 0.0949 µM) is reported as 43.7% and 56% and 56.1%. The viability, T/C (compound 0.3 µM) was 28.6% and 38.6% and 34.7%, the viability, T/C (compound 0.949 µM) was 17.3% and 23.2% and 21.1% and the viability, T/C (compound 3 µM) was 12.2% and 14.5% and 11.7%. The IC50 (curve of compound) was 49 nM and 143 nM and 120 nM.
`CC[C@@]1(O)C(=O)OCc2c1cc1n(c2=O)Cc2cc3c(CN(C)C)c(O)ccc3nc2-1` was tested, and the viability, T/C (compound 0.003 µM) was 78.6% [middle of 10 runs], the viability, T/C (compound 0.00949 µM) was 48.8% [middle of 10 runs] and the viability, T/C (compound 0.03 µM) was 16% [middle of 10 runs]. The viability, T/C (compound 0.0949 µM) was 7.7% [middle of 10 runs], the viability, T/C (compound 0.3 µM) was 5.06% [middle of 10 runs] and the IC50 (compound alone, run of 12/02/2019) was 8.64 nM [middle of 5 runs]. For the same compound, the IC50 (compound alone, run of 12/12/2019) was 9.18 nM [middle of 5 runs].
`CNCc1ccc(-c2cc(-c3nc(-c4ccc(S(=O)(=O)C(C)C)cc4)cnc3N)on2)cc1` was tested, and the viability, T/C (compound 0.00949 µM) was 97.3% and 93.8% and 100%, the viability, T/C (compound 0.03 µM) was 102% and 98.4% and 99.4% and the viability, T/C (compound 0.0949 µM) was 103% and 105% and 101%. The viability, T/C (compound 0.3 µM) was 96.6% and 96% and 97.9%, the viability, T/C (compound 0.949 µM) was 71.3% and 64% and 69.4% and the viability, T/C (compound 3 µM) was 41.7% and 38.1% and 39.8%. The IC50 (curve of compound) was 2170 nM and 1770 nM and 2020 nM.
